Measurements reported in paper PMC7662393, “Comprehensive Characterization of Linalool-HP-β-Cyclodextrin Inclusion Complexes” (Molecules, 2020).
In brackets after ≈: the same amount, converted by molar mass. Read-outs that look alike come from different tables or passages of the source.

What was measured:
[1] = Aqueous solubility of linalool (S0) from phase solubility study, ultrasound equilibrium; format: physicochemical; details: for solubility at 60 min: read-out: Recovery aqueous solubility (S0)
Method: (§1) The study of linalool solubility in the presence of CDs was carried out according to the method described by Higuchi and Connors in 1965 with slight modifications. CDs were dissolved in buffered solutions at different pHs: 3.5, 5.5 (100 mmol L^−1 sodium acetate buffer), 6.5, 7.0 (100 mmol L^−1 sodium phosphate buffer) and 8.5 (100 mmol L^−1 sodium borate buffer). The α- and HP-β-CDs were prepared up to 100 mmol L^−1. However, β-CDs were prepared up to 15 mmol L^−1, since this is their limit of aqueous solubility.
(§2) A saturating concentration of linalool was added to each CDs solution and they were kept in an ultrasound bath for 60 min in the dark, at 25 °C, until equilibrium was reached. Subsequently, the solutions were filtered through a 0.45 µm nylon membrane filter (Chromafil, Macherey-Nagel, Düren, Germany) to remove excess linalool.
(§3) Once filtered, the solutions were diluted with ethanol until reach ethanol 80% (solution:ethanol, 20:80, v:v) to quantify by gas chromatography-mass spectrometry (GC-MS) the linalool concentration in each solution. Phase solubility diagrams were made in triplicate.
(§4) The quantification of linalool was carried out by using a Shimadzu GC-QP 2010 (Kyoto, Japan) gas chromatographer combined with a mass spectrometer. Helium was used as carrier gas, at a flow rate of 0.5 mL min^−1. A ω-WAX 250 fused silica supelco column (30 m × 0.25 mm × 0.25 µm thickness), was used. The temperature conditions were as follows: initial temperature at 70 °C, raised to 160 °C at 4 °C min^−1, raised to 280 °C at 30 °C min^−1, and maintained finally at 280 °C for 6 min. Injector temperature was 250 °C and injector mode was Split 1:20.
(§5) The peak area of each sample was used for linalool quantification (mmol L^−1), by interpolating in the calibration curve obtained using a standard of linalool, defined by equation: Area = […] [linalool (mmol L^−1)] and (R^2 = 0.9989) for linalool concentration from 0.0 to 0.5 mmol L^−1.

[2] = Phase solubility study of linalool complexation with α-CDs; format: physicochemical
Method: as §1, §2, §3, §4, §5
(§6) Kc between linalool and CDs was calculated from the slope of the phase solubility profile and the solubility of linalool in aqueous solution (S0) by using Equation (1):(1) Kc (Lmol^−1)=slope/S0(1−slope)
(§7) CE is the ratio between dissolved complex and free CDs concentration. […] was calculated by using Equation (2):(2) CE=[disolved−complex]/[CDs]=S0∗Kc
(§8) The molar ratio (MR) linalool:CDs, was calculated using CE values with Equation (3). (3) linalool:CDs=1:(1+1/CE)

[3] = Phase solubility study of linalool complexation with β-CDs; format: physicochemical
Method: as §1, §2, §3, §4, §5, §6, §7, §8

[4] = Phase solubility study of linalool complexation with HP-β-CDs (ultrasound); format: physicochemical
Method: as §1, §2, §3, §4, §5, §6, §7, §8

[5] = Phase solubility of linalool with HP-β-CDs by microwave irradiation (MWI); format: physicochemical; details: pH 7.0
Method: The encapsulation of linalool with HP-β-CDs by using MWI was carried out following the method described by Hernández-Sánchez et al. in 2017 [32]. Aqueous solutions of HP-β-CDs (100 mL, 0–100 mmol L^−1) were irradiated with microwave (LG Grill Wavedom, LG Electronics Las Rozas, Spain), at 700 W for 30 s, at 10 s intervals, until reaching a temperature of 70 °C in the solution. Later on, linalool was added to each aqueous solution, in a molar ratio of 1:1 and then, were irradiated again for 30 s at 10 s intervals, until reaching again 70 °C. Subsequently, the samples were shaken and kept for 12 h in dark sealed vials at 25 °C, before dividing them into two groups. After that, the first group, named 24 h MWI, was filtered using 0.45 µm nylon membrane filter (Chromafil, Macherey-Nagel). The second group, named 48 h MWI, were irradiated again, until reaching 70 °C, and maintain 12 h in the dark before they were filtered through a 0.45 µm nylon filter to remove linalool excess. Once filtered, both groups of samples were diluted with ethanol (20:80, v:v) until the GC-MS quantification of the linalool. All measurements were made in triplicate.
as §4, §5

[6] = parameters: method as in doi:10.1002/ffj.3197; details: JECFA (FAO/WHO); cited from earlier work
[7] = hydroxyl group at C3; no reference or method printed; cited from earlier work
[8] = parameters: method as in PMID 25298799; details: HP-β-CDs; cited from earlier work
[9] = parameters: method as in PMID 25298799; details: RAMEB; cited from earlier work
[10] = parameters: method as in PMID 25298799; details: CRYSMEB; cited from earlier work

C=CC(C)(O)CCC=C(C)C (stereo not drawn) [linalool, 3,7-dimethyl-1,6-octadien-3-ol]
solubility at 60 min ([1]; aqueous buffer, thermodynamic from solid, pH 6.5, 25 °C): 8.16 ± 0.11 mM (≈ 1260 µg/mL) | solubility at 60 min ([1]; aqueous buffer, thermodynamic from solid, pH 7.0, 25 °C): 7.37 mM (≈ 1140 µg/mL) | Recovery aqueous solubility (S0) ([1]; pH 3.5, 25 °C): 9.34 ± 0.20 mM | solubility at 60 min ([1]; pH 5.5, 25 °C): 9.05 ± 0.16 mM (≈ 1400 µg/mL) | Recovery aqueous solubility (S0) ([1]; pH 7.0, 25 °C): 7.37 ± 0.03 mM | solubility at 60 min ([1]; pH 8.5, 25 °C): 9.33 ± 0.13 mM (≈ 1440 µg/mL) | solubility at 60 min ([1]; sodium acetate buffer, pH 3.5, 25 °C): 9.34 mM (≈ 1440 µg/mL) | Complexation efficiency (CE) ([2]; pH 3.5): 0.159 | Complexation constant (KC) ([2]; pH 3.5, 25 °C): 17 ± 6 L/mol | Complexation efficiency (CE) ([2]; pH 5.5): 0.226 | Complexation constant (KC) ([2]; pH 5.5, 25 °C): 25 ± 4 L/mol | Complexation efficiency (CE) ([2]; pH 6.5): 0.987 | Complexation constant (KC) ([2]; pH 6.5, 25 °C): 121 ± 9 L/mol | Complexation efficiency (CE) ([2]; pH 7.0): 1.090 | Complexation constant (KC) ([2]; pH 7.0, 25 °C): 148 ± 12 L/mol | Complexation efficiency (CE) ([2]; pH 8.5): 0.979 | Complexation constant (KC) ([2]; pH 8.5, 25 °C): 105 ± 8 L/mol | Complexation efficiency (CE) ([3]; pH 3.5): 0.261 | Complexation constant (KC) ([3]; pH 3.5, 25 °C): 28 ± 4 L/mol | Complexation efficiency (CE) ([3]; pH 5.5): 0.670 | Complexation constant (KC) ([3]; pH 5.5, 25 °C): 74 ± 5 L/mol | Complexation efficiency (CE) ([3]; pH 6.5): 0.743 | Complexation constant (KC) ([3]; pH 6.5, 25 °C): 91 ± 4 L/mol | Complexation efficiency (CE) ([3]; pH 7.0): 1.776 | Complexation constant (KC) ([3]; pH 7.0, 25 °C): 241 ± 26 L/mol | Complexation efficiency (CE) ([3]; pH 8.5): 0.149 | Complexation constant (KC) ([3]; pH 8.5, 25 °C): 16 ± 5 L/mol | Linalool concentration solved ([4]; 100 mM HP-β-CDs, US, pH 7.0): 96.72 mM | Linalool concentration solved, US relative to MWI ([4]; 100 mM HP-β-CDs, pH 7.0): 7 fold | Increase in solubility of linalool ([4]; HP-β-CDs, US as energy source, volume 100 mL, pH 7.0): 13.1 fold | Complexation efficiency (CE) ([4]; HP-β-CDs, pH 3.5): 0.411 | Complexation constant (KC) ([4]; HP-β-CDs, pH 3.5, 25 °C): 44 ± 6 L/mol | Complexation efficiency (CE) ([4]; HP-β-CDs, pH 5.5): 0.443 | Complexation constant (KC) ([4]; HP-β-CDs, pH 5.5, 25 °C): 49 ± 7 L/mol | Complexation efficiency (CE) ([4]; HP-β-CDs, pH 6.5): 1.836 | Complexation constant (KC) ([4]; HP-β-CDs, pH 6.5, 25 °C): 225 ± 14 L/mol | Complexation efficiency (CE) ([4]; HP-β-CDs, pH 7.0): 6.788 | Complexation constant (KC) ([4]; HP-β-CDs, pH 7.0, 25 °C): 921 ± 21 L/mol | Complexation efficiency (CE) ([4]; HP-β-CDs, pH 8.5): 5.215 | Complexation constant (KC) ([4]; HP-β-CDs, pH 8.5, 25 °C): 559 ± 17 L/mol | KC value for HP-β-CDs relative to that for β-CDs ([4]; neutral pH): 4 fold | Linalool concentration solved ([5]; 100 mM HP-β-CDs, MWI): 13.61 mM | Increase in solubility of linalool ([5]; HP-β-CDs, MWI as energy source, volume 100 mL): 18.2 fold | solubility thermodynamic ([5]; aqueous solution without HP-β-CDs (S0), 25 °C, water, thermodynamic from solid, MWI): 0.75 mM (≈ 116 µg/mL) | Allowable daily intake (ADI) [6]: 0–0.5 mg kg^−1 of body weight/day | pKa [7]: 18.46

C=CCc1ccc(O)c(OC)c1 [eugenol]
Complexation efficiency (CE) [8]: 2.81

COc1cc(/C=C/C(=O)O)ccc1O [ferulic acid]
Complexation efficiency (CE) [9]: 1.79

O=C(O)/C=C/c1ccc(O)cc1 [coumaric acid]
Complexation efficiency (CE) [8]: 2.30 | Complexation efficiency (CE) [9]: 2.57 | Complexation efficiency (CE) [10]: 1.89
